Results reported in ChEMBL document CHEMBL1201862, “PubChem BioAssay data set” (2004).
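Exposure lasted 48 hours, with cells grown in 96-well plates and compounds tested at five concentrations. GI50 is the concentration that inhibits growth by half.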 Calls of active or inactive are those of the source. No stated cut-off is given here; in the data, active = GI50 up to about 1.1 µM and inactive = higher.

Key:
Experiment in all cases: NCI anticancer screen, dose series, 48 h
SK-MEL-2 = tested on: SK-MEL-2
NCI-H460 = tested on: NCI-H460
DLD-1 = tested on: DLD-1
MOLT-4 = tested on: MOLT-4
U-251 = tested on: U-251
UACC-62 = tested on: UACC-62
UACC-257 = tested on: UACC-257
LXFL 529 = tested on: LXFL 529
A498 = tested on: A498
SK-MEL-28 = tested on: SK-MEL-28
SF-268 = tested on: SF-268
HCC 2998 = tested on: HCC 2998
OVCAR-5 = tested on: OVCAR-5
Malme-3M = tested on: Malme-3M
RXF 631 = tested on: RXF 631
HL-60 = tested on: HL-60
OVCAR-8 = tested on: OVCAR-8
K562 = tested on: K562
LOX IMVI = tested on: LOX IMVI
SK-MEL-5 = tested on: SK-MEL-5
HT-29 = tested on: HT-29
CAKI-1 = tested on: CAKI-1
IGROV-1 = tested on: IGROV-1
SW-620 = tested on: SW-620
SN12C = tested on: SN12C
HCT-116 = tested on: HCT-116
RXF 393 = tested on: RXF 393
786-0 = tested on: 786-0
NCI-H226 = tested on: NCI-H226
A549 = tested on: A549
RPMI-8226 = tested on: RPMI-8226
HCT-15 = tested on: HCT-15
SF-295 = tested on: SF-295
DMS-114 = tested on: DMS-114
SNB-78 = tested on: SNB-78
SNB-19 = tested on: SNB-19
EKVX = tested on: EKVX
M19-MEL = tested on: M19-MEL
M14 = tested on: M14
SNB-75 = tested on: SNB-75
DMS-273 = tested on: DMS-273
HOP-92 = tested on: HOP-92
SF-539 = tested on: SF-539
UO-31 = tested on: UO-31
KM-20L2 = tested on: KM-20L2
XF498 = tested on: XF498
ACHN = tested on: ACHN
SR = tested on: SR
TK-10 = tested on: TK-10
OVCAR-4 = tested on: OVCAR-4
OVCAR-3 = tested on: OVCAR-3
CCRF-CEM = tested on: CCRF-CEM
NCI-H23 = tested on: NCI-H23

Cc1ccc(C)c(NC(=O)CC2C(=O)Nc3ccccc3S2(=O)=O)c1 (stereo not drawn)
GI50 (SK-MEL-2): > 100 µM (inactive) | GI50 (NCI-H460): > 100 µM (inactive) | GI50 (DLD-1): > 100 µM (inactive) | GI50 (MOLT-4): > 100 µM (inactive) | GI50 (U-251): 43.3 µM (inactive) | GI50 (UACC-62): 46.2 µM (inactive) | GI50 (UACC-257): > 100 µM (inactive) | GI50 (LXFL 529): > 100 µM (inactive) | GI50 (A498): 30.2 µM (inactive) | GI50 (SK-MEL-28): 72.9 µM (inactive) | GI50 (SF-268): 42.7 µM (inactive) | GI50 (HCC 2998): 77.8 µM (inactive) | GI50 (OVCAR-5): > 100 µM (inactive) | GI50 (Malme-3M): 31.5 µM (inactive) | GI50 (RXF 631): > 100 µM (inactive) | GI50 (HL-60): 49.9 µM (inactive) | GI50 (OVCAR-8): 37.2 µM (inactive) | GI50 (K562): 53.1 µM (inactive) | GI50 (LOX IMVI): 51.3 µM (inactive) | GI50 (SK-MEL-5): 27.7 µM (inactive) | GI50 (HT-29): > 100 µM (inactive) | GI50 (CAKI-1): 31.8 µM (inactive) | GI50 (IGROV-1): 52.8 µM (inactive) | GI50 (SW-620): 36.6 µM (inactive) | GI50 (SN12C): > 100 µM (inactive) | GI50 (HCT-116): 52.2 µM (inactive) | GI50 (RXF 393): 27.9 µM (inactive) | GI50 (786-0): 22.8 µM (inactive) | GI50 (NCI-H226): 36.8 µM (inactive) | GI50 (A549): > 100 µM (inactive) | GI50 (RPMI-8226): 36.6 µM (inactive) | GI50 (HCT-15): 87.9 µM | GI50 (SF-295): > 100 µM (inactive) | GI50 (DMS-114): 45.4 µM (inactive) | GI50 (SNB-78): 68.4 µM (inactive) | GI50 (SNB-19): 75 µM (inactive) | GI50 (EKVX): 31.2 µM (inactive) | GI50 (M19-MEL): 63 µM (inactive) | GI50 (M14): 44.5 µM (inactive) | GI50 (SNB-75): 21.5 µM (inactive) | GI50 (DMS-273): 28.1 µM (inactive) | GI50 (HOP-92): 38.8 µM (inactive) | GI50 (SF-539): 25.5 µM (inactive) | GI50 (UO-31): 49.7 µM (inactive) | GI50 (KM-20L2): > 100 µM (inactive) | GI50 (XF498): 27.8 µM (inactive) | GI50 (ACHN): 48.2 µM (inactive) | GI50 (SR): 61 µM (inactive) | GI50 (TK-10): > 100 µM (inactive) | GI50 (OVCAR-4): 19 µM (inactive) | GI50 (OVCAR-3): 42 µM (inactive) | GI50 (CCRF-CEM): > 100 µM (inactive) | GI50 (NCI-H23): 61.1 µM (inactive)
